Assay results from ChEMBL document CHEMBL4043130, “Discovery of a tetrahydroisoquinoline-based HDAC inhibitor with improved plasma stability” (Bioorg Med Chem, 2017).
Activity calls are given as the source filed them. The rule behind the calls is not given here.

Tests used:
[1] = Half life in rat plasma by HPLC analysis; assay type: ADME, cell-free
[2] = Inhibition of HDAC in human HeLa nuclear extract preincubated for 5 mins followed by Boc-Lys (acetyl)-AMC addition measured after 10 mins by fluorescence assay
MDA-MB-231 [3] = experiment: Antitumor activity against human MDA-MB-231 cells xenografted subcutaneously in BALB/c nude mouse assessed as reduction in tumor volume at 90 mg/kg, po; assay type: functional, organism-based
MDA-MB-231 [4] = experiment: Antitumor activity against human MDA-MB-231 cells xenografted subcutaneously in BALB/c nude mouse assessed as reduction in tumor growth at 90 mg/kg, po; assay type: functional, organism-based
U-266 = experiment: Antiproliferative activity against human U266 cells after 48 hrs by MTT assay; assay type: functional, cell-based; conditions: U-266, 48 h
[5] = biological target: Histone deacetylase 1/2/3 (Homo sapiens) (UniProt Q13547+O15379+Q92769); experiment: Inhibition of HDAC1/2/3 in human MDA-MB-231 cells assessed as increase in hyperacetylation of histone H3 level at 1 uM after 3 hrs by Western blot analysis; assay type: cell-based
[6] = biological target: T1, Protein deacetylase HDAC6 (Homo sapiens) (UniProt Q9UBN7); experiment: Inhibition of HDAC6 in human MDA-MB-231 cells assessed as increase in acetylated alpha tubulin level at 1 uM after 3 hrs by Western blot analysis; assay type: cell-based
T1 sequence (whole entry): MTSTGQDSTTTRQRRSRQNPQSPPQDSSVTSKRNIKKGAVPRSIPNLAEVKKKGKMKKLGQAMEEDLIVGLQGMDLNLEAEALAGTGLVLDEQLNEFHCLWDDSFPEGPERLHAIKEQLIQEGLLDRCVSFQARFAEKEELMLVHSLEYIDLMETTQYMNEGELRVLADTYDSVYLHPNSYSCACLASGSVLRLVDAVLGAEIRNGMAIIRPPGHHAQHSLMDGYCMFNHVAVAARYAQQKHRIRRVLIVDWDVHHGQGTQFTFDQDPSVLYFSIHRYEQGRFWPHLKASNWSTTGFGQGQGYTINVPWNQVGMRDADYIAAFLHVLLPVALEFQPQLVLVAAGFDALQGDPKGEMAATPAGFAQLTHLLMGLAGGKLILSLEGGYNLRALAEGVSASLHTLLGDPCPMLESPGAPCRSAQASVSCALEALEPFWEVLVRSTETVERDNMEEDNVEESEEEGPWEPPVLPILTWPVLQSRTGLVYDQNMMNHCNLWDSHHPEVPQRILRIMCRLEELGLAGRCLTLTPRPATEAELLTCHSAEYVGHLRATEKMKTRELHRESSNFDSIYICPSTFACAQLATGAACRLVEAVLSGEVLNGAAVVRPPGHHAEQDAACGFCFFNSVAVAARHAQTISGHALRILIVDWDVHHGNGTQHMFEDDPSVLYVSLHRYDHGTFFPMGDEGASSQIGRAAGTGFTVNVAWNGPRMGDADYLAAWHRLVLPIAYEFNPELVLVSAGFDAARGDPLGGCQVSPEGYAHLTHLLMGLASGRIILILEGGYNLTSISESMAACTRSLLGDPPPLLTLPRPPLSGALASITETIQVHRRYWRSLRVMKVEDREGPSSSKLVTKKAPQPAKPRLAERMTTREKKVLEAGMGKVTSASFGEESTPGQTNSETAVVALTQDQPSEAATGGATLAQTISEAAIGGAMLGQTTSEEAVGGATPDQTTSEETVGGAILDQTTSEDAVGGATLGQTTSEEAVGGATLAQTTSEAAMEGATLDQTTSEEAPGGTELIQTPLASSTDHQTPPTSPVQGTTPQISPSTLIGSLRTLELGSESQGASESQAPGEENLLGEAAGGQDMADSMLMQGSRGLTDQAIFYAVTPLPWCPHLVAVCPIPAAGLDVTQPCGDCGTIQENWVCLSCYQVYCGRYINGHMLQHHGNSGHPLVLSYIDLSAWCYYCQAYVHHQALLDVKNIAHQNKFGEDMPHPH

U-937 = experiment: Antiproliferative activity against human U937 cells after 48 hrs by MTT assay; assay type: functional, cell-based; conditions: U-937, 48 h
MDA-MB-231 [7] = experiment: Antiproliferative activity against human MDA-MB-231 cells after 48 hrs by MTT assay; assay type: functional, cell-based; conditions: MDA-MB-231, 48 h

CN(C)c1ccc(NC(=O)[C@@H]2Cc3ccc(OCC(=O)NO)cc3CN2C(=O)CNC(=O)CC(C)(C)C)cc1
half-life [1]: 1.13 h | IC50 [2]: 0.377 µM

CC[C@H](C)[C@H](NC(=O)CC(C)(C)C)C(=O)N1Cc2cc(OCC(=O)NO)ccc2C[C@H]1C(=O)Nc1ccc(OC)cc1
inhibition (MDA-MB-231 [3]): Active | TGI (MDA-MB-231 [4]): Active | IC50 (U-266): 0.69 µM | half-life [1]: 1.72 h | inhibition [5]: Active | inhibition [6]: Active | IC50 (U-937): 0.56 µM | IC50 [2]: 0.0694 µM | IC50 (MDA-MB-231 [7]): 2.56 µM

CC[C@H](C)[C@H](NC(=O)CC(C)(C)C)C(=O)N1Cc2cc(OCC(=O)NO)ccc2C[C@H]1C(=O)Nc1ccc(N(C)C)cc1
inhibition (MDA-MB-231 [3]): Active | TGI (MDA-MB-231 [4]): Active | IC50 (U-266): 0.78 µM | half-life [1]: 10.5 h | inhibition [5]: Active | inhibition [6]: Active | IC50 (U-937): 0.55 µM | IC50 [2]: 0.0385 µM | IC50 (MDA-MB-231 [7]): 2.13 µM

CC[C@H](C)[C@H](NC(=O)OC(C)(C)C)C(=O)N1Cc2cc(OCC(=O)NO)ccc2C[C@H]1C(=O)Nc1ccc(N(C)C)cc1
half-life [1]: 2.18 h | IC50 [2]: 0.055 µM
